Assay results published in publication PMC10528299, “Targeting FAK/PYK2 with SJP1602 for Anti-Tumor Activity in Triple-Negative Breast Cancer” (Current Issues in Molecular Biology, 2023).

Key:
Assay in all cases: Eurofins kinase profiling
Type in all cases: biochemical
BRK(h) = molecular target: T1, BRK(h) (Homo sapiens, UniProt Q13882); settings: read-out: residual kinase activity BRK(h)
T1 construct: purchased Eurofins KinaseProfiler
How it was run: (§1)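 Single-point screen at 1 µM compound; radiometric read-out of kinase activity using radiolabeled phosphate, per standard KinaseProfiler protocol.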

CSK(h) = molecular target: T2, CSK(h) (Homo sapiens, UniProt P41240); settings: read-out: residual kinase activity CSK(h)
T2 construct: purchased Eurofins KinaseProfiler
How it was run: as §1

FGFR4(h) = molecular target: T3, FGFR4(h) (Homo sapiens, UniProt P22455); settings: read-out: residual kinase activity FGFR4(h)
T3 construct: purchased Eurofins KinaseProfiler
T3 sequence (P22455 22-802): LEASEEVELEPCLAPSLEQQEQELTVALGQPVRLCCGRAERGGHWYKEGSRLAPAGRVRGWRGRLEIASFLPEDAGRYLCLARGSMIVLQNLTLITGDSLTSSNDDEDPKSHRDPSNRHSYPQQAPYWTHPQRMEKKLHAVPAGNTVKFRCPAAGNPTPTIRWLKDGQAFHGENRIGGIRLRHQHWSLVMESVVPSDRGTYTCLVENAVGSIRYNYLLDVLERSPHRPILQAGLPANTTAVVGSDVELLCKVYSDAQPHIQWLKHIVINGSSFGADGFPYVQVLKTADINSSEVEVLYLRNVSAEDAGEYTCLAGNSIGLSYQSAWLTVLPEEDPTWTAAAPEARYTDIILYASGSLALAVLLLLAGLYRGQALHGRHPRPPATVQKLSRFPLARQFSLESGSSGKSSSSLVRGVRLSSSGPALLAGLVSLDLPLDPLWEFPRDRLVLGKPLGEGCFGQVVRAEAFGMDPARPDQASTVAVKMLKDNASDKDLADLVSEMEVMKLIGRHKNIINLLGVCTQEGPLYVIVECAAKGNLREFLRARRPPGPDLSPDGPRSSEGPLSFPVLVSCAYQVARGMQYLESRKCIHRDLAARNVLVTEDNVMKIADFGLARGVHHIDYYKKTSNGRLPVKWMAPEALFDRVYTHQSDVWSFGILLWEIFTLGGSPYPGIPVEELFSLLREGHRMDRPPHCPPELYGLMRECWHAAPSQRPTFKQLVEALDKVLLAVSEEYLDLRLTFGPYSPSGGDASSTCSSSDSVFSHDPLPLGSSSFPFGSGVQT
How it was run: as §1

Flt3(h) = molecular target: T4, Flt3(h) (Homo sapiens, UniProt P36888); settings: read-out: residual kinase activity Flt3(h)
T4 construct: purchased Eurofins KinaseProfiler
T4 sequence (P36888 27-993): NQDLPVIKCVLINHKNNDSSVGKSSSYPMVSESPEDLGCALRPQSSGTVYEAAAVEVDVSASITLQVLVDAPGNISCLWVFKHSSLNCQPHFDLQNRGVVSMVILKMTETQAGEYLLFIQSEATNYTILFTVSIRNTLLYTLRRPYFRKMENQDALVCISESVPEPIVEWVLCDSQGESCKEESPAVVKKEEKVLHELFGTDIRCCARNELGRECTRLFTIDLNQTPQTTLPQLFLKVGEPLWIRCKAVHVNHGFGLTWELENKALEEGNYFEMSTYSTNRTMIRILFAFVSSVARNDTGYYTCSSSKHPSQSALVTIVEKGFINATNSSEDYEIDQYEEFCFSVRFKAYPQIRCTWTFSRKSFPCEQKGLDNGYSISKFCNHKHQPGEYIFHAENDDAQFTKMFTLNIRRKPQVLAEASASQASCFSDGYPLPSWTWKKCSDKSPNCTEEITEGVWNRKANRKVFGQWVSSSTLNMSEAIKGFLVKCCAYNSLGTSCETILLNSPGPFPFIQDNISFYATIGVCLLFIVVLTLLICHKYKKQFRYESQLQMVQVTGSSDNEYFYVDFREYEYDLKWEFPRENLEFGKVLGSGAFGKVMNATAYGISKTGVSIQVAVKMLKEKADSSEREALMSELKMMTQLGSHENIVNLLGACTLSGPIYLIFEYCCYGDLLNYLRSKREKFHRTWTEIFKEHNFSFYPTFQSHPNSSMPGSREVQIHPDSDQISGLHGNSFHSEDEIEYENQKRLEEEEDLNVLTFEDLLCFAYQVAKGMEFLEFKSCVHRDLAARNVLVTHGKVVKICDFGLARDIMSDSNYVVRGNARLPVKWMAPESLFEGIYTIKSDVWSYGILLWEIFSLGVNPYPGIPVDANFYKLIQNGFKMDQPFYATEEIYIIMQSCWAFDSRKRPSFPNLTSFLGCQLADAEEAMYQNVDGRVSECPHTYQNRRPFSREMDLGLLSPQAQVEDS
How it was run: as §1

Fms(h) = molecular target: T5, Fms(h) (Homo sapiens, UniProt P07333); settings: read-out: residual kinase activity Fms(h)
T5 construct: purchased Eurofins KinaseProfiler
T5 sequence (P07333 20-972): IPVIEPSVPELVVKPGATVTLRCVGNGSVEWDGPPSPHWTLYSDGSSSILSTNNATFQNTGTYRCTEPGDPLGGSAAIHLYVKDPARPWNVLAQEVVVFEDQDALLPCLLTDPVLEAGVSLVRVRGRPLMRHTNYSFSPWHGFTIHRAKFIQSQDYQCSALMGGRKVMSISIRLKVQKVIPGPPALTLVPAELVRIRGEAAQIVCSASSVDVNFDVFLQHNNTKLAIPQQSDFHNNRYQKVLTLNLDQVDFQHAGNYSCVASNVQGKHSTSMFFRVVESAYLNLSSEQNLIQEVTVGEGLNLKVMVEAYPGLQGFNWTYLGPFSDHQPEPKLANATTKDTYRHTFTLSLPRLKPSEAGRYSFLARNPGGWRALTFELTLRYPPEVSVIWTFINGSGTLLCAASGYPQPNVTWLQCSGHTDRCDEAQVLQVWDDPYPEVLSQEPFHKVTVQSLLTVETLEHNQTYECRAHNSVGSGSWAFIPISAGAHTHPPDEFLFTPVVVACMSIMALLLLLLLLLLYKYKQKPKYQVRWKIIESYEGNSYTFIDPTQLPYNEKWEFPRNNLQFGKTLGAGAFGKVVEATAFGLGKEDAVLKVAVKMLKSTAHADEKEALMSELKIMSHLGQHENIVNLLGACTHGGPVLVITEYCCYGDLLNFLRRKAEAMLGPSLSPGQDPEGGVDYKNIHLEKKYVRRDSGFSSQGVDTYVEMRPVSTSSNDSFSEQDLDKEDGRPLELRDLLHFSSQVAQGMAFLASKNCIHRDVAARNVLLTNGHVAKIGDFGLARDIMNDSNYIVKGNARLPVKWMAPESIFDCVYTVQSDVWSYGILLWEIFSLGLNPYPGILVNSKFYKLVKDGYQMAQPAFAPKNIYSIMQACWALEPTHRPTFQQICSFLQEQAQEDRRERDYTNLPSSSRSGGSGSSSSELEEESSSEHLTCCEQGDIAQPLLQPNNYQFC
How it was run: as §1

HIPK3(h) = molecular target: T6, HIPK3(h) (Homo sapiens, UniProt Q9H422); settings: read-out: residual kinase activity HIPK3(h)
T6 construct: purchased Eurofins KinaseProfiler
T6 sequence (Q9H422 whole entry): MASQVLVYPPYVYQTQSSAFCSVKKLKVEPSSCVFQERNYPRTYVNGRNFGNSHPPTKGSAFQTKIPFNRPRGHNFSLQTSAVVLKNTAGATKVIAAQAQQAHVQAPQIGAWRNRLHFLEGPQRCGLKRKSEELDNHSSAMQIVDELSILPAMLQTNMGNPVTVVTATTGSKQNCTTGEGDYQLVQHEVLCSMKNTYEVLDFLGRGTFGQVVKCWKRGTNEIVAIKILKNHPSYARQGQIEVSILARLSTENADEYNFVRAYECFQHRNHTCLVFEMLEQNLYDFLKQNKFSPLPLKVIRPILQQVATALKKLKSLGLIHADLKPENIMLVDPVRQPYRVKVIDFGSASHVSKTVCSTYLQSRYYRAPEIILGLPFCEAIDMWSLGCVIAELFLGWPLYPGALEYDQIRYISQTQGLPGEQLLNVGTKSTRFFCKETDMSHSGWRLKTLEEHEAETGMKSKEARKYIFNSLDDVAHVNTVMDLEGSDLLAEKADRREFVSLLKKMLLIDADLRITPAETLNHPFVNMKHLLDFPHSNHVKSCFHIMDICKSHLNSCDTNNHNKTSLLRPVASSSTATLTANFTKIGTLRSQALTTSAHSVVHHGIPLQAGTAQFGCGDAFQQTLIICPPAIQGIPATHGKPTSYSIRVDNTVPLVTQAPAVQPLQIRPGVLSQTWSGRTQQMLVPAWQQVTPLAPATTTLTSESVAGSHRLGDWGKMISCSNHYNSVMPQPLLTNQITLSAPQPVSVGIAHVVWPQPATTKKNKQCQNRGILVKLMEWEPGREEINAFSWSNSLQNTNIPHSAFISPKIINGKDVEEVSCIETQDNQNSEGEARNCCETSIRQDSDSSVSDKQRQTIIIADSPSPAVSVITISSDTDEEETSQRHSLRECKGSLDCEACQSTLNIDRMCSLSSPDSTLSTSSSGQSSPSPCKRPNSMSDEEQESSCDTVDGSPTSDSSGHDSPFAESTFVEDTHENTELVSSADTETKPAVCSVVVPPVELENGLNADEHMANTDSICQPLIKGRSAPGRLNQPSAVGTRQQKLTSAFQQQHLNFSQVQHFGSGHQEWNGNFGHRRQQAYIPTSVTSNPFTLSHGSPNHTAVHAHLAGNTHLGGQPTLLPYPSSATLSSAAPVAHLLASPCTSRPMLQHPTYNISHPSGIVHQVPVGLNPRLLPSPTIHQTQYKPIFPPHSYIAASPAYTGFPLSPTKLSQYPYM
How it was run: as §1

PAK1(h) = molecular target: T7, PAK1(h) (Homo sapiens, UniProt Q13153); settings: read-out: residual kinase activity PAK1(h)
T7 construct: purchased Eurofins KinaseProfiler
T7 sequence (Q13153 whole entry): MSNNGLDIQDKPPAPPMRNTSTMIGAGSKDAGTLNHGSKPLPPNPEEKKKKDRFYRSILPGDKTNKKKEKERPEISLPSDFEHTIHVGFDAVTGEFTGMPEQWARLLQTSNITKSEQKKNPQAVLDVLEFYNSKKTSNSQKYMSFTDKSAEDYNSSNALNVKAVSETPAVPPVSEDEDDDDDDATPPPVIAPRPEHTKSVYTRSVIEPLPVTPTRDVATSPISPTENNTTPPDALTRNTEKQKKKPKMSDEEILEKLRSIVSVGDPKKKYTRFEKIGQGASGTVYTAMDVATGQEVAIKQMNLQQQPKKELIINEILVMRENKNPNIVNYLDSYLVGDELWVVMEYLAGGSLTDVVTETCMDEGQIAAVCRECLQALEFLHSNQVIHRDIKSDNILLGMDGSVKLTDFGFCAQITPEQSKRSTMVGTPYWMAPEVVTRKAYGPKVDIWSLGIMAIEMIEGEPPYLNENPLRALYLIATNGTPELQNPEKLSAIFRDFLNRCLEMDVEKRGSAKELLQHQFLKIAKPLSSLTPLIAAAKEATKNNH
How it was run: as §1

PAK4(h) = molecular target: T8, PAK4(h) (Homo sapiens, UniProt O96013); settings: read-out: residual kinase activity PAK4(h)
T8 construct: purchased Eurofins KinaseProfiler
How it was run: as §1

PDGFRα(h) = molecular target: T9, PDGFRα(h) (Homo sapiens, UniProt P16234); settings: read-out: residual kinase activity PDGFRα(h)
T9 construct: purchased Eurofins KinaseProfiler
T9 sequence (P16234 24-1089): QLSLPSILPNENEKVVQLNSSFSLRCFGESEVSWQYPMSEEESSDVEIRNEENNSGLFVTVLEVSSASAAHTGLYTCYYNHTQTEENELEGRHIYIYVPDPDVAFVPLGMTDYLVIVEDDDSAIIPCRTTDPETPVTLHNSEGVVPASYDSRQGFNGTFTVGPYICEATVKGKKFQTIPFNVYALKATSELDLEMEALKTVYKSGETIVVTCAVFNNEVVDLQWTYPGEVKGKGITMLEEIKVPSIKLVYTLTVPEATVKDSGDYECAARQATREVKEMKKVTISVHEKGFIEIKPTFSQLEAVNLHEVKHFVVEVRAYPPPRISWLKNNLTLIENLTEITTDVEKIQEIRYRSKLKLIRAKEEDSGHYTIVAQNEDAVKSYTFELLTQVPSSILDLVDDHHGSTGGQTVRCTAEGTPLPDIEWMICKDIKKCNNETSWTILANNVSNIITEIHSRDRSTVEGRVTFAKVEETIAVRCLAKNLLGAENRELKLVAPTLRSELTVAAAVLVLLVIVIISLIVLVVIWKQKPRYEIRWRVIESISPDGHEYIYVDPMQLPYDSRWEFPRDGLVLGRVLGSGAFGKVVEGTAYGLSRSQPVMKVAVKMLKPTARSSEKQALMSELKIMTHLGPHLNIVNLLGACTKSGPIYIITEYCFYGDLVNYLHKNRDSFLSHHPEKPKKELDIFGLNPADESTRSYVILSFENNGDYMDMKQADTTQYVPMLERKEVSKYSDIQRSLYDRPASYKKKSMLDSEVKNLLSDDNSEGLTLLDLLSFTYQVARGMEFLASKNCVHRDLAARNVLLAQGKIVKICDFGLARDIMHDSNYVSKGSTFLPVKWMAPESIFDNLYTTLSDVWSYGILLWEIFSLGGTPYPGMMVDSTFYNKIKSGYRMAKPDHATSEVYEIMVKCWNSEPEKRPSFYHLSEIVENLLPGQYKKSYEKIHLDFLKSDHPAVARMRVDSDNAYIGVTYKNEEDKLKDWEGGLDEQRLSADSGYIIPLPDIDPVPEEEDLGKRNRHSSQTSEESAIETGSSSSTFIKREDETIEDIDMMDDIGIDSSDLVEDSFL
How it was run: as §1

[1] = molecular target: T10, PI3 Kinase (p110a(H1047R)/p85a)(h) (Homo sapiens, UniProt P42336, H1047R); settings: read-out: residual kinase activity PI3 Kinase (p110a(H1047R)/p85a)(h)
T10 construct: purchased Eurofins KinaseProfiler
How it was run: as §1

PI3 Kinase (p120g)(h) = molecular target: T11, PI3 Kinase (p120g)(h) (Homo sapiens, UniProt P48736); settings: read-out: residual kinase activity PI3 Kinase (p120g)(h)
T11 construct: purchased Eurofins KinaseProfiler
How it was run: as §1

Ros(h) = molecular target: T12, Ros(h) (Homo sapiens, UniProt P08922); settings: read-out: residual kinase activity Ros(h)
T12 construct: purchased Eurofins KinaseProfiler
How it was run: as §1

TAK1(h) = molecular target: T13, TAK1(h) (Homo sapiens, UniProt O43318); settings: read-out: residual kinase activity TAK1(h)
T13 construct: purchased Eurofins KinaseProfiler
T13 sequence (O43318 1-303 limits assumed): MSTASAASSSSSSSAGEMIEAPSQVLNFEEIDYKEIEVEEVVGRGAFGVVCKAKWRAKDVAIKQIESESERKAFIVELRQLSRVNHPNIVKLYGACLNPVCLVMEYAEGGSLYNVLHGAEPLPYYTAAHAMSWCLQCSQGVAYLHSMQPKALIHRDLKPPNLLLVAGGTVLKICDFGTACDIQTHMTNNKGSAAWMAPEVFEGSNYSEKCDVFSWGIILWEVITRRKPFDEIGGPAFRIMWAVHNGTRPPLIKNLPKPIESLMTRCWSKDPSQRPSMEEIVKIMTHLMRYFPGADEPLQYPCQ
How it was run: as §1

cSRC(h) = molecular target: T14, cSRC(h) (Homo sapiens, UniProt P12931); settings: read-out: residual kinase activity cSRC(h)
T14 construct: purchased Eurofins KinaseProfiler
T14 sequence (P12931 whole entry): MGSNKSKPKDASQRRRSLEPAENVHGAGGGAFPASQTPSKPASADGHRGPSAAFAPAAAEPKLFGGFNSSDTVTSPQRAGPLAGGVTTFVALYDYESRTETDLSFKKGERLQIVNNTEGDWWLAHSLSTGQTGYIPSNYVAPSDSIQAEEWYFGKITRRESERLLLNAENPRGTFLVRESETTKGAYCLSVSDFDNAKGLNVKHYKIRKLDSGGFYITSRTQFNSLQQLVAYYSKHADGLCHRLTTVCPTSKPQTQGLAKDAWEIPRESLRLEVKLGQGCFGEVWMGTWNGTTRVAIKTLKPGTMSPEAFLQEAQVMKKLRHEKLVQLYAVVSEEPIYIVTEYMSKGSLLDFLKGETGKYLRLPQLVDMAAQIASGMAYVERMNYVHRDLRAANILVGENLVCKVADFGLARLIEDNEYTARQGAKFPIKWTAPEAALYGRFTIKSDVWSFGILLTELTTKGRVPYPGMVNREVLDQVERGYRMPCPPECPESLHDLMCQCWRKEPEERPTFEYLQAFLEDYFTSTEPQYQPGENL
How it was run: as §1

remaining activity at 1 µM (BRK(h)) [%]	remaining activity at 1 µM (CSK(h)) [%]	remaining activity at 1 µM (FGFR4(h)) [%]	remaining activity at 1 µM (Flt3(h)) [%]	remaining activity at 1 µM (Fms(h)) [%]	remaining activity at 1 µM (HIPK3(h)) [%]	remaining activity at 1 µM (PAK1(h)) [%]	remaining activity at 1 µM (PAK4(h)) [%]	remaining activity at 1 µM (PDGFRα(h)) [%]	remaining activity at 1 µM [1] [%]	remaining activity at 1 µM (PI3 Kinase (p120g)(h)) [%]	remaining activity at 1 µM (Ros(h)) [%]	remaining activity at 1 µM (TAK1(h)) [%]	remaining activity at 1 µM (cSRC(h)) [%]	Structure (SMILES)
67	92	104	108	88	106	91	93	101	97	101	103	95	88	CONC(=O)c1ccccc1Nc1cc(Nc2cc(C)nn2C(C)C)ncc1Cl [GSK2256098]
91	88	104	6	67	54	79	42	79	101	104	106	71	72	CNC(=O)c1ccc(Nc2ncc(C(F)(F)F)c(NCc3nccnc3N(C)S(C)(=O)=O)n2)cc1 [VS-6063, Defactinib]

Structure (SMILES)	remaining activity at 1 µM (BRK(h)) [%]	remaining activity at 1 µM (CSK(h)) [%]	remaining activity at 1 µM (FGFR4(h)) [%]	remaining activity at 1 µM (Flt3(h)) [%]	remaining activity at 1 µM (Fms(h)) [%]	remaining activity at 1 µM (HIPK3(h)) [%]	remaining activity at 1 µM (PAK1(h)) [%]	remaining activity at 1 µM (PAK4(h)) [%]	remaining activity at 1 µM (PDGFRα(h)) [%]	remaining activity at 1 µM [1] [%]	remaining activity at 1 µM (PI3 Kinase (p120g)(h)) [%]	remaining activity at 1 µM (Ros(h)) [%]	remaining activity at 1 µM (TAK1(h)) [%]	remaining activity at 1 µM (cSRC(h)) [%]
CNC(=O)c1cccc(C)c1Nc1nc(Nc2ccc(N3CCN(C4C5CC6CC4CC(O)(C6)C5)CC3)cc2OC)ncc1C(F)(F)F (stereo not drawn) [SJP1602, 2-((2-((4-(4-((2s,5r)-5-hydroxyadamantan-2-yl)piperazin-1-yl)-2-methoxyphenyl)amino)-5-(trifluoromethyl)pyrimidin-4-yl)amino)-N,3-dimethylbenzamide]	109	83	102	77	85	100	119	85	97	97	85	104	113	99
